Measurements taken from ChEMBL document CHEMBL3045446, “In vitro antimicrobial and antimycobacterial activity of some chalcones and their derivatives” (2013).
Converted amounts (≈) assume the structure as drawn.

How the values were obtained:
Assay type in all cases: functional
[1] = system: Mycobacterium tuberculosis; assay: Antituberculosis activity against Mycobacterium tuberculosis H37Rv assessed as growth inhibition after 12 to 28 days by L-J MIC method; details: for MIC: Mycobacterium tuberculosis, H37Rv
[2] = system: Klebsiella pneumoniae; assay: Antimicrobial activity against Klebsiella pneumoniae MTCC 109 assessed as diameter of growth inhibition zone after 24 hr
[3] = system: Shigella flexneri; assay: Antimicrobial activity against Shigella flexneri MTCC1457 assessed as diameter of growth inhibition zone after 24 hr
[4] = system: Shigella flexneri; assay: Antimicrobial activity against Shigella flexneri MTCC1457 assessed as growth inhibition after 24 hr by agar streak dilution method; details: MTCC1457, 24 h
[5] = system: Bacillus cereus; assay: Antimicrobial activity against Bacillus cereus MTCC 430 assessed as growth inhibition after 24 hr by agar streak dilution method; details: MTCC 430, 24 h
[6] = system: Candida albicans; assay: Antimicrobial activity against Candida albicans MTCC 183 assessed as growth inhibition after 48 hr by agar streak dilution method; details: MTCC 183, 48 h
[7] = system: Aspergillus fumigatus; assay: Antimicrobial activity against Aspergillus fumigatus MTCC 343 assessed as diameter of growth inhibition zone after 48 hr
[8] = system: Pseudomonas aeruginosa; assay: Antimicrobial activity against Pseudomonas aeruginosa MTCC 741 assessed as diameter of growth inhibition zone after 24 hr
[9] = system: Pseudomonas aeruginosa; assay: Antimicrobial activity against Pseudomonas aeruginosa MTCC 741 assessed as growth inhibition after 24 hr by agar streak dilution method; details: MTCC 741, 24 h
[10] = system: Escherichia coli; assay: Antimicrobial activity against Escherichia coli MTCC 739 assessed as diameter of growth inhibition zone after 24 hr
[11] = system: Klebsiella pneumoniae; assay: Antimicrobial activity against Klebsiella pneumoniae MTCC 109 assessed as growth inhibition after 24 hr by agar streak dilution method; details: MTCC 109, 24 h
[12] = system: Salmonella typhi; assay: Antimicrobial activity against Salmonella enterica subsp. enterica serovar Typhi MTCC 733 assessed as diameter of growth inhibition zone after 24 hr
[13] = system: Staphylococcus aureus; assay: Antimicrobial activity against Staphylococcus aureus MTCC 96 assessed as diameter of growth inhibition zone after 24 hr
[14] = system: Aspergillus niger; assay: Antimicrobial activity against Aspergillus niger MTCC 282 assessed as diameter of growth inhibition zone after 48 hr
[15] = system: Staphylococcus aureus; assay: Antimicrobial activity against Staphylococcus aureus MTCC 96 assessed as growth inhibition after 24 hr by agar streak dilution method; details: MTCC 96, 24 h
[16] = system: Bacillus cereus; assay: Antimicrobial activity against Bacillus cereus MTCC 430 assessed as diameter of growth inhibition zone after 24 hr
[17] = system: Salmonella typhi; assay: Antimicrobial activity against Salmonella enterica subsp. enterica serovar Typhi MTCC 733 assessed as growth inhibition after 24 hr by agar streak dilution method; details: MTCC 733, 24 h
[18] = system: Aspergillus fumigatus; assay: Antimicrobial activity against Aspergillus fumigatus MTCC 343 assessed as growth inhibition after 48 hr by agar streak dilution method; details: MTCC 343, 48 h
[19] = system: Candida albicans; assay: Antimicrobial activity against Candida albicans MTCC 183 assessed as diameter of growth inhibition zone after 48 hr
[20] = system: Aspergillus clavatus; assay: Antimicrobial activity against Aspergillus clavatus MTCC 1323 assessed as diameter of growth inhibition zone after 48 hr
[21] = system: Proteus vulgaris; assay: Antimicrobial activity against Proteus vulgaris MTCC 1771 assessed as growth inhibition after 24 hr by agar streak dilution method; details: MTCC 1771, 24 h
[22] = system: Aspergillus clavatus; assay: Antimicrobial activity against Aspergillus clavatus MTCC 1323 assessed as growth inhibition after 48 hr by agar streak dilution method; details: MTCC 1323, 48 h
[23] = system: Escherichia coli; assay: Antimicrobial activity against Escherichia coli MTCC 739 assessed as growth inhibition after 24 hr by agar streak dilution method; details: MTCC 739, 24 h
[24] = system: Aspergillus niger; assay: Antimicrobial activity against Aspergillus niger MTCC 282 assessed as growth inhibition after 48 hr by agar streak dilution method; details: MTCC 282, 48 h
[25] = system: Proteus vulgaris; assay: Antimicrobial activity against Proteus vulgaris MTCC 1771 assessed as diameter of growth inhibition zone after 24 hr

SMILES | growth inhibition (GI) [1] [%] | MIC [1] [µg/mL] | diameter of the inhibition zone (DIZ) [2] [mm] | diameter of the inhibition zone (DIZ) [3] [mm] | MIC [4] [µg/mL] | MIC [5] [µg/mL] | MIC [6] [µg/mL] | diameter of the inhibition zone (DIZ) [7] [mm] | diameter of the inhibition zone (DIZ) [8] [mm] | MIC [9] [µg/mL] | diameter of the inhibition zone (DIZ) [10] [mm] | MIC [11] [µg/mL] | diameter of the inhibition zone (DIZ) [12] [mm] | diameter of the inhibition zone (DIZ) [13] [mm] | diameter of the inhibition zone (DIZ) [14] [mm] | MIC [15] [µg/mL] | diameter of the inhibition zone (DIZ) [16] [mm] | MIC [17] [µg/mL] | MIC [18] [µg/mL] | diameter of the inhibition zone (DIZ) [19] [mm] | other results
Cc1ccc(-c2cc(-c3ccc(Nc4cc(=O)oc5ccccc45)cc3)nc(N)c2C#N)cc1 | 98 | 100 (≈ 225 µM) | 18 | 25 | 12.5 (≈ 28.1 µM) | 25 (≈ 56.2 µM) | 3.12 (≈ 7.02 µM) | 21 | 22 | 12.5 (≈ 28.1 µM) | 20 | 50 (≈ 112 µM) | 21 | 21 | 24 | 25 (≈ 56.2 µM) | 23 | 25 (≈ 56.2 µM) | 25 (≈ 56.2 µM) | 28 | diameter of the inhibition zone (DIZ) [20]: 20 mm; MIC [21]: 12.5 µg/mL (≈ 28.1 µM); MIC [22]: 25 µg/mL (≈ 56.2 µM); MIC [23]: 25 µg/mL (≈ 56.2 µM); MIC [24]: 12.5 µg/mL (≈ 28.1 µM); diameter of the inhibition zone (DIZ) [25]: 24 mm
Nc1nc(-c2ccc(Nc3cc(=O)oc4ccccc34)cc2)cc(-c2ccc([N+](=O)[O-])cc2)n1 | 96 | 500 (≈ 1110 µM) | 18 | 16 | 100 (≈ 222 µM) | 100 (≈ 222 µM) | 50 (≈ 111 µM) | 16 | 16 | 100 (≈ 222 µM) | 17 | 50 (≈ 111 µM) | 21 | 15 | 17 | 100 (≈ 222 µM) | 16 | 25 (≈ 55.4 µM) | 100 (≈ 222 µM) | 19 | diameter of the inhibition zone (DIZ) [20]: 20 mm; MIC [21]: 100 µg/mL (≈ 222 µM); MIC [22]: 25 µg/mL (≈ 55.4 µM); MIC [23]: 100 µg/mL (≈ 222 µM); MIC [24]: 50 µg/mL (≈ 111 µM); diameter of the inhibition zone (DIZ) [25]: 14 mm
O=C(/C=C/c1ccccc1Br)c1ccc(Nc2cc(=O)oc3ccccc23)cc1 | 97 | 500 (≈ 1120 µM) | 14 | 12 | 100 (≈ 224 µM) | 100 (≈ 224 µM) | 50 (≈ 112 µM) | 15 | <10 | 100 (≈ 224 µM) | 11 | 100 (≈ 224 µM) | 11 | 13 | 12 | 100 (≈ 224 µM) | 11 | 100 (≈ 224 µM) | 100 (≈ 224 µM) | 18 | diameter of the inhibition zone (DIZ) [20]: 12 mm; MIC [21]: 100 µg/mL (≈ 224 µM); MIC [22]: 100 µg/mL (≈ 224 µM); MIC [23]: 100 µg/mL (≈ 224 µM); MIC [24]: 100 µg/mL (≈ 224 µM); diameter of the inhibition zone (DIZ) [25]: <10 mm
Nc1nc(-c2ccc(Cl)cc2)cc(-c2ccc(Nc3cc(=O)oc4ccccc34)cc2)n1 | 97 | 200 (≈ 454 µM) | 22 | 21 | 25 (≈ 56.7 µM) | 50 (≈ 113 µM) | 12.5 (≈ 28.4 µM) | 19 | 16 | 100 (≈ 227 µM) | 18 | 12.5 (≈ 28.4 µM) | 20 | 20 | 17 | 50 (≈ 113 µM) | 19 | 25 (≈ 56.7 µM) | 25 (≈ 56.7 µM) | 21 | diameter of the inhibition zone (DIZ) [20]: 17 mm; MIC [21]: 12.5 µg/mL (≈ 28.4 µM); MIC [22]: 50 µg/mL (≈ 113 µM); MIC [23]: 50 µg/mL (≈ 113 µM); MIC [24]: 50 µg/mL (≈ 113 µM); diameter of the inhibition zone (DIZ) [25]: 23 mm
CC[C@@H](CO)NCCN[C@@H](CC)CO [ETHAMBUTOL] | 99 | 3.12 (≈ 15.3 µM) | – | – | – | – | – | – | – | – | – | – | – | – | – | – | – | – | – | – | –
Nc1nc(-c2ccc(Nc3cc(=O)oc4ccccc34)cc2)cc(-c2ccccc2Br)n1 | 98 | 100 (≈ 206 µM) | 18 | 19 | 50 (≈ 103 µM) | 100 (≈ 206 µM) | 25 (≈ 51.5 µM) | 19 | 15 | 100 (≈ 206 µM) | 16 | 50 (≈ 103 µM) | 20 | 17 | 20 | 100 (≈ 206 µM) | 16 | 50 (≈ 103 µM) | 50 (≈ 103 µM) | 23 | diameter of the inhibition zone (DIZ) [20]: 17 mm; MIC [21]: 100 µg/mL (≈ 206 µM); MIC [22]: 50 µg/mL (≈ 103 µM); MIC [23]: 100 µg/mL (≈ 206 µM); MIC [24]: 50 µg/mL (≈ 103 µM); diameter of the inhibition zone (DIZ) [25]: 17 mm
O=C(/C=C/c1ccccc1O)c1ccc(Nc2cc(=O)oc3ccccc23)cc1 | 97 | 500 (≈ 1300 µM) | 19 | 13 | 100 (≈ 261 µM) | 100 (≈ 261 µM) | 100 (≈ 261 µM) | 17 | 15 | 100 (≈ 261 µM) | 14 | 50 (≈ 130 µM) | 13 | 15 | 16 | 100 (≈ 261 µM) | 13 | 100 (≈ 261 µM) | 50 (≈ 130 µM) | 13 | diameter of the inhibition zone (DIZ) [20]: 11 mm; MIC [21]: 100 µg/mL (≈ 261 µM); MIC [22]: 100 µg/mL (≈ 261 µM); MIC [23]: 100 µg/mL (≈ 261 µM); MIC [24]: 100 µg/mL (≈ 261 µM); diameter of the inhibition zone (DIZ) [25]: 15 mm
COc1ccc(/C=C/C(=O)c2ccc(Nc3cc(=O)oc4ccccc34)cc2)cc1OC | 97 | 200 (≈ 468 µM) | 17 | 20 | 25 (≈ 58.5 µM) | 50 (≈ 117 µM) | 100 (≈ 234 µM) | 17 | 18 | 50 (≈ 117 µM) | 22 | 100 (≈ 234 µM) | 16 | 21 | 21 | 25 (≈ 58.5 µM) | 19 | 100 (≈ 234 µM) | 50 (≈ 117 µM) | 17 | diameter of the inhibition zone (DIZ) [20]: 16 mm; MIC [21]: 50 µg/mL (≈ 117 µM); MIC [22]: 100 µg/mL (≈ 234 µM); MIC [23]: 25 µg/mL (≈ 58.5 µM); MIC [24]: 25 µg/mL (≈ 58.5 µM); diameter of the inhibition zone (DIZ) [25]: 19 mm
CC(=O)N1CCN(c2ccc(OCC3COC(Cn4ccnc4)(c4ccc(Cl)cc4Cl)O3)cc2)CC1 (stereo not drawn) [KETOCONAZOLE] | – | – | – | – | – | – | 1 (≈ 1.88 µM) | 29 | – | – | – | – | – | – | 30 | – | – | – | 1 (≈ 1.88 µM) | 33 | diameter of the inhibition zone (DIZ) [20]: 31 mm; MIC [22]: 1 µg/mL (≈ 1.88 µM); MIC [24]: ≤ 3 µg/mL
NC(=O)c1cnccn1 [PYRAZINAMIDE] | 99 | 6.25 (≈ 50.8 µM) | – | – | – | – | – | – | – | – | – | – | – | – | – | – | – | – | – | – | –
O=C(O)c1cn(C2CC2)c2cc(N3CCNCC3)c(F)cc2c1=O [CIPROFLOXACIN] | – | – | 33 | 32 | ≤ 3 | 1 (≈ 3.02 µM) | – | – | 33 | 1 (≈ 3.02 µM) | 32 | 1 (≈ 3.02 µM) | 30 | 30 | – | 1 (≈ 3.02 µM) | 31 | 1 (≈ 3.02 µM) | – | – | MIC [21]: 1 µg/mL (≈ 3.02 µM); diameter of the inhibition zone (DIZ) [25]: 31 mm
CO[C@H]1/C=C/O[C@@]2(C)Oc3c(C)c(O)c4c(O)c(c(/C=N/N5CCN(C)CC5)c(O)c4c3C2=O)NC(=O)/C(C)=C\C=C\[C@H](C)[C@H](O)[C@@H](C)[C@@H](O)[C@@H](C)[C@H](OC(C)=O)[C@@H]1C [RIFAMPIN] | 99 | 0.25 (≈ 0.304 µM) | – | – | – | – | – | – | – | – | – | – | – | – | – | – | – | – | – | – | –
NNC(=O)c1ccncc1 [ISONIAZID] | 99 | 0.2 (≈ 1.46 µM) | – | – | – | – | – | – | – | – | – | – | – | – | – | – | – | – | – | – | –
